Source: patent US20240158446A1, “CYCLIC COMPOUND HAVING SELECTIVE INHIBITORY ACTION ON KRAS OVER HRAS AND NRAS” (CHUGAI SEIYAKU KABUSHIKI KAISHA, priority 2021, published 2024)
Where two headings read alike, the source gives them in different places. Where a SMILES comes first, the peptide text is derived from it. Bridges are numbered along the chain shown (N, C = ends). [ ]: non-standard residue; d: D form. The star is where a group is joined. hPhe(3,5-F2-4-CF3) = N[C@@H](CCc1cc(F)c(C(F)(F)F)c(F)c1)C(=O)O; hPhe(3-Cl-4-CF3) = N[C@@H](CCc1ccc(C(F)(F)F)c(Cl)c1)C(=O)O; NPrPhe(4-CF3) = CCCN[C@@H](Cc1ccc(C(F)(F)F)cc1)C(=O)O; NMeGly(cPent) = CN[C@H](C(=O)O)C1CCCC1; Pro(4,4-F2) = O=C(O)[C@@H]1CC(F)(F)CN1; NMeD = CN[C@@H](CC(=O)O)C(=O)O; NMeL = CN[C@@H](CC(C)C)C(=O)O; Morpholide = C1CN(*)CCO1; Ac5c = NC1(C(=O)O)CCCC1; Aze = O=C(O)[C@@H]1CCN1; X24 = CC1(C)CCN(*)C1; NEtG = CCNCC(=O)O; Sar = CNCC(=O)O

Legend:
[1] = molecular target: GDP-bound NRAS wild-type protein (Homo sapiens, UniProt P01111); experiment: Binding to NRAS by surface plasmon resonance (SPR), Single Cycle Kinetics; conditions: for NRAS/KRAS (ratio of KD value for NRAS to KD value for KRAS) / NRAS/KRAS (ratio of KD value with respect to NRAS to KD value with respect to KRAS): SPR, GDP-bound NRAS wild-type protein vs GDP-bound KRAS wild-type protein
[2] = molecular target: GDP-bound KRAS wild-type protein (Homo sapiens, UniProt P01116); experiment: Binding to KRAS by surface plasmon resonance (SPR), Single Cycle Kinetics; conditions: GDP-bound KRAS wild-type protein, read-out: KRAS KD
[3] = molecular target: GDP-bound HRAS wild-type protein (Homo sapiens, UniProt P01112); experiment: Binding to HRAS by surface plasmon resonance (SPR), Single Cycle Kinetics; conditions: for HRAS/KRAS (ratio of KD value for HRAS to KD value for KRAS) / HRAS/KRAS (ratio of KD value with respect to HRAS to KD value with respect to KRAS): SPR, GDP-bound HRAS wild-type protein vs GDP-bound KRAS wild-type protein
[4] = SPR Single Cycle Kinetics, 1:1 binding model

Sequence of GDP-bound KRAS wild-type protein (P01116 whole entry): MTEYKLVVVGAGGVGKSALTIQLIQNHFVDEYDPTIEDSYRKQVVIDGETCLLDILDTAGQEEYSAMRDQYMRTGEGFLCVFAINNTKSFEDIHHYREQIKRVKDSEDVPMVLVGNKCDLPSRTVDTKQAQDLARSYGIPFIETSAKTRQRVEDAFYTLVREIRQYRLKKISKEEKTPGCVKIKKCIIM
Sequence of GDP-bound NRAS wild-type protein (P01111 whole entry): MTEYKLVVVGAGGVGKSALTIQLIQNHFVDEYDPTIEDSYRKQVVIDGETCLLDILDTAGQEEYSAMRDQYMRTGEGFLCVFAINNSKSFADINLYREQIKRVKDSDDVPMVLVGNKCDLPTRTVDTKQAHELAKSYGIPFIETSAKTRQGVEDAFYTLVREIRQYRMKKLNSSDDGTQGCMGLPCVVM
Sequence of GDP-bound HRAS wild-type protein (P01112 whole entry): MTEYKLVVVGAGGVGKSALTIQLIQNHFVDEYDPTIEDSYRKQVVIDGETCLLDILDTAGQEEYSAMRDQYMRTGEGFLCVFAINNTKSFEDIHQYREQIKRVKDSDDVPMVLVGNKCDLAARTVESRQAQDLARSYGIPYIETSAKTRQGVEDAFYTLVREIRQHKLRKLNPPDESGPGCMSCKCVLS

Kd [2, 4] [nM]	Kd ([2]; SPR, Single Cycle Kinetics) [nM]	SMILES	NRAS/KRAS (ratio of KD value with respect to GDP-bound NRAS wild-type protein to KD value with respect to KRAS) ([1]; SPR KD ratio NRAS/KRAS, class symbols)	HRAS/KRAS (ratio of KD value with respect to GDP-bound HRAS wild-type protein to KD value with respect to KRAS) ([3]; SPR KD ratio HRAS/KRAS, class symbols)	NRAS/KRAS (ratio of KD value for NRAS to KD value for KRAS) [1]	HRAS/KRAS (ratio of KD value for HRAS to KD value for KRAS) [3]	NRAS/KRAS (ratio of KD value with respect to NRAS to KD value with respect to KRAS) [1]	HRAS/KRAS (ratio of KD value with respect to HRAS to KD value with respect to KRAS) [3]
	0.11	CCO[C@@H]1C[C@H]2C(=O)NC3(CCC3)C(=O)N(C)[C@@H](C3CCCC3)C(=O)N(C)[C@H](C(=O)N3CCC3)CC(=O)N(C)[C@@H](CC)C(=O)N[C@@H]([C@@H](C)CC)C(=O)N(C)CC(=O)N(C)[C@H]3C/C=C\CCN(C3=O)[C@@H](Cc3ccc(C(F)(F)F)cc3)C(=O)N(C)CC(=O)N[C@@H](CCc3cc(F)c(C(F)(F)F)c(F)c3)C(=O)N2C1 [PP1091, (2S,8S,12R,14S,20S,23S,27S,30S,36S,38Z)-23-(azetidine-1-carbonyl)-20-cyclopentyl-8-[2-[3,5-difluoro-4-(trifluoromethyl)phenyl]ethyl]-12-ethoxy-27-ethyl-4,19,22,26,32,35-hexamethyl-30-[(1S)-1-methylpropyl]-2-[[4-(trifluoromethyl)phenyl]methyl]spiro[1,4,7,10,16,19,22,26,29,32,35-undecazatricyclo[34.5.1.0^10,14]dotetracont-38-ene-17,1′-cyclobutane]-3,6,9,15,18,21,25,28,31,34,42-undecone]			A (a compound having 10 or more and less than 20 is denoted as A)	B (a compound having 3 or more and less than 10 is denoted as B)		
	1.1	CCO[C@@H]1C[C@H]2C(=O)NC3(CCC3)C(=O)N(C)[C@@H](C3CCCC3)C(=O)N(C)[C@H](C(=O)N(C)C)CC(=O)N(C)[C@@H](Cc3ccc(C)cc3)C(=O)N[C@@H]([C@@H](C)CC)C(=O)N(C)CC(=O)N(C)[C@H]3CCCCCN(C3=O)[C@@H](Cc3ccc(C(F)(F)F)cc3)C(=O)N(C)CC(=O)N[C@@H](CCc3cc(F)c(C(F)(F)F)c(F)c3)C(=O)N2C1 [PP0943]			B (a compound having 3 or more and less than 10 is denoted as B)	B (a compound having 3 or more and less than 10 is denoted as B)		
0.29		CC[C@H](C)[C@@H]1NC(=O)[C@H](CC)N(C)C(=O)C[C@@H](C(=O)N(C)C)N(CC)C(=O)[C@H](C2CCCC2)N(C)C(=O)C2(CCC2)NC(=O)[C@@H]2CCN2C(=O)[C@H](CCc2cc(F)c(C(F)(F)F)c(F)c2)NC(=O)CN(C)C(=O)[C@H](Cc2ccc(C(F)(F)F)cc2)N2CCCC[C@@H](C2=O)N(C)C(=O)CN(C)C1=O [PP0660]					B (a compound having 3 or more and less than 10 is denoted as B)	B (a compound having 3 or more and less than 10 is denoted as B)
	0.089	CCO[C@@H]1C[C@H]2C(=O)NC3(CC(C)(C)C3)C(=O)N(C)[C@@H](C3CCCC3)C(=O)N(C)[C@H](C(=O)N(C)CC)CC(=O)N(C)[C@@H](C3CC3)C(=O)N[C@@H]([C@@H](C)CC)C(=O)N(C)CC(=O)N(C)[C@H]3C/C=C\CCN(C3=O)[C@@H](Cc3ccc(C(F)(F)F)cc3)C(=O)N(C)CC(=O)N[C@@H](CCc3cc(F)c(C(F)(F)F)c(F)c3)C(=O)N2C1 [PP2036]			A (a compound having 10 or more and less than 20 is denoted as A)	A (a compound having 10 or more and less than 20 is denoted as A)		
	0.42	CCO[C@@H]1C[C@H]2C(=O)NC3(CCC3)C(=O)N(C)[C@@H](C3CCCC3)C(=O)N(C)[C@H](C(=O)N(C)C)CC(=O)N(C)[C@@H](Cc3ccc(F)cc3)C(=O)N[C@@H]([C@@H](C)CC)C(=O)N(C)CC(=O)N(C)[C@H]3CCCCCN(C3=O)[C@@H](Cc3ccc(C(F)(F)F)cc3)C(=O)N(C)CC(=O)N[C@@H](CCc3cc(F)c(C(F)(F)F)c(F)c3)C(=O)N2C1 [PP0936]			B (a compound having 3 or more and less than 10 is denoted as B)	B (a compound having 3 or more and less than 10 is denoted as B)		
	0.063	CC[C@H](C)[C@@H]1NC(=O)[C@H](CC(C)C)N(C)C(=O)C[C@@H](C(=O)N2CCOCC2)N(C)C(=O)[C@H](C2CCCC2)N(C)C(=O)C2(CCC2)NC(=O)[C@@H]2[C@@H](OCC3CC3)CCN2C(=O)[C@H](CCc2cc(F)c(C(F)(F)F)c(F)c2)NC(=O)CN(C)C(=O)[C@H](Cc2ccc(C(F)(F)F)cc2)N2CCCC[C@@H](C2=O)N(C)C(=O)CN(C)C1=O [PP1072]			B (a compound having 3 or more and less than 10 is denoted as B)	B (a compound having 3 or more and less than 10 is denoted as B)		
2.4		CCCN1C(=O)CN(C)C(=O)CN(CC)C(=O)[C@H]([C@@H](C)CC)NC(=O)[C@H](CC(C)C)N(C)C(=O)C[C@@H](C(=O)N2CCOCC2)NC(=O)[C@H](C2CCCC2)N(C)C(=O)C2(CCCC2)NC(=O)[C@@H]2CC(F)(F)CN2C(=O)[C@H](CCc2ccc(C(F)(F)F)c(Cl)c2)NC(=O)CN(C)C(=O)[C@@H]1Cc1ccc(C(F)(F)F)cc1 [PP0333] ([NMeL]I[NEtG][Sar][NPrPhe(4-CF3)][Sar][hPhe(3-Cl-4-CF3)][Pro(4,4-F2)][Ac5c][NMeGly(cPent)]D-Morpholide; lactam N-11)			B (a compound having 3 or more and less than 10 is denoted as B)	C (A compound having a KD ratio of 0.1 or more and less than 3 is denoted as C)		
0.55		CCCN1C(=O)CN(C)C(=O)CN(C)C(=O)[C@H]([C@@H](C)CC)NC(=O)[C@H](CC(C)C)N(C)C(=O)C[C@@H](C(=O)N2CCC(C)(C)C2)N(C)C(=O)[C@H](C2CCCC2)N(C)C(=O)C2(CCCC2)NC(=O)[C@@H]2CCCN2C(=O)[C@H](CCc2ccc(C(F)(F)F)c(Cl)c2)NC(=O)CN(C)C(=O)[C@@H]1Cc1ccc(C(F)(F)F)cc1 [PP0177] ([NMeL]I[Sar][Sar][NPrPhe(4-CF3)][Sar][hPhe(3-Cl-4-CF3)]P[Ac5c][NMeGly(cPent)][NMeD]-X24; lactam N-11)			B (a compound having 3 or more and less than 10 is denoted as B)	C (A compound having a KD ratio of 0.1 or more and less than 3 is denoted as C)		
0.12		CCCN1C(=O)[C@@H]2CCN2C(=O)CN(C)C(=O)[C@H]([C@@H](C)CC)NC(=O)[C@H](CC(C)C)N(C)C(=O)C[C@@H](C(=O)N2CCOCC2)N(C)C(=O)[C@H](C2CCCC2)N(C)C(=O)C2(CCCC2)NC(=O)[C@@H]2CCCN2C(=O)[C@H](CCc2cc(F)c(C(F)(F)F)c(F)c2)NC(=O)CN(C)C(=O)[C@@H]1Cc1ccc(C(F)(F)F)cc1 [PP0789] ([NMeL]I[Sar][Aze][NPrPhe(4-CF3)][Sar][hPhe(3,5-F2-4-CF3)]P[Ac5c][NMeGly(cPent)][NMeD]-Morpholide; lactam N-11)					C (A compound having a KD ratio of 0.1 or more and less than 3 is denoted as C)	B (a compound having 3 or more and less than 10 is denoted as B)

SMILES	Kd [2, 4] [nM]	Kd ([2]; SPR, Single Cycle Kinetics) [nM]	NRAS/KRAS (ratio of KD value with respect to GDP-bound NRAS wild-type protein to KD value with respect to KRAS) ([1]; SPR KD ratio NRAS/KRAS, class symbols)	HRAS/KRAS (ratio of KD value with respect to GDP-bound HRAS wild-type protein to KD value with respect to KRAS) ([3]; SPR KD ratio HRAS/KRAS, class symbols)	NRAS/KRAS (ratio of KD value for NRAS to KD value for KRAS) [1]	HRAS/KRAS (ratio of KD value for HRAS to KD value for KRAS) [3]	NRAS/KRAS (ratio of KD value with respect to NRAS to KD value with respect to KRAS) [1]	HRAS/KRAS (ratio of KD value with respect to HRAS to KD value with respect to KRAS) [3]
CCO[C@@H]1C[C@H]2C(=O)NC3(CC(C)(C)C3)C(=O)N(C)[C@@H](C3CCCC3)C(=O)N(C)[C@H](C(=O)N3CCCCC3)CC(=O)N(C)[C@H]3CCC/C=C/c4ccc(cc4)C[C@@H](C(=O)N(C)CC(=O)N[C@@H](CCc4ccc(Cl)c(Cl)c4)C(=O)N2C1)N1CC/C=C\C[C@@H](C1=O)N(C)C(=O)CN(C)C(=O)[C@H]([C@@H](C)CC)NC3=O [PP2578]	0.27		AA (a compound having 20 or more is denoted as AA)	A (a compound having 10 or more and less than 20 is denoted as A)				
